This is an account of results in patent US20250250298A1, “ONCOLYTIC PEPTIDE AND USE THEREOF” (Rise Biopharmaceuticals Inc., priority 2022, published 2025).

Where a SMILES comes first, the peptide text is derived from it.

The subject of one test is HFW (Human fibroblast). In words: MTT cytotoxicity, HFW. As to conditions: 24 hours incubation. In kind it is cell-based. An excerpt:
(§1) The MTT assay is a colorimetric method for measuring the activity of enzymes in living cells that reduces Thiazolyl blue tetrazolium bromide (MTT) to formazan dyes showing a purple color. In this embodiment, a colorimetric 3-(4.5-dimethylthiazol-2-yl)-2.5-diphenyltetrazodium bromide (MTT) viability assay was used to assess the in vitro cytotoxicity of oncolytic peptides.
(§2) The half inhibition concentration (IC50) is the concentration required by the oncolytic peptides to reach fifty percent inhibition. In one embodiment, the oncolytic peptides were used for IC50 test via MTT colorimetric assay.
(§3) Human lung cancer lines PC9 and A549 and murine pancreatic cancer cell line Panc02 were cultured in RPMI medium supplemented with 10% fetal bovine serum and antibiotic in this embodiment. Additionally, murine hepatoma cell line Hepa 1-6, murine melanoma cell line B16-F10, murine fibrosarcoma cell line MN-11, murine mammary cancer cell line E0771 and human diploid fibroblast (HFW) were cultured in DMEM medium supplemented with 10% fetal bovine serum and antibiotic. Cells were cultured in a humidified incubator containing 5% CO2 at 37° C.
(§4) All cancer cell lines were seeded in a 96-well plate with a concentration of 5000-8000 cells/100 μl/well and incubated for 24 hrs. After medium was removed, 100 μl fresh medium containing peptide (ranging from 50 μM to 0.8 μM) was added to the wells. Following 24 hours incubation, fresh medium with MTT (0.5 mg/ml) was replaced and incubated for 3 hours. After medium/MTT was removed, DMSO was added at 100 μl for dissolving the formazan crystal. Cell survival rate was calculated by measuring the absorbance at 540 nm using a Multi-labeled Microplate Reader (Sunrise™, TECAN).

The test system of test [1] is HUVEC (Human Umbilical Vein Endothelial (Cell)). In words: MTT cytotoxicity, HUVEC. As to conditions: 24 hours incubation. In kind it is cell-based.
Description: as §1, §2, §4

The subject of test [2] is B16-F10 (Murine skin malignant melanoma). The experiment in a line: MTT cytotoxicity, B16-F10. In kind it is cell-based. The settings on record: B16-F10, 24 hours incubation.
Description: as §1, §2, §3, §4

In another test the test system is Panc02. In words: MTT cytotoxicity, Panc02. Format: cell-based, murine. As to conditions: Panc02, 24 hours incubation.
Description: as §1, §2, §3, §4

The test system of test [3] is PC9 (Human non-small cell lung cancer cell). The experiment in a line: MTT cytotoxicity, PC9. In kind it is cell-based. As to conditions: PC9, 24 hours incubation.
Description: as §1, §2, §3, §4

Test [4] deals with OECM-1 (Human oral cancer cell). In words: MTT cytotoxicity, OECM-1. In kind it is cell-based. As to conditions: OECM-1, 24 hours incubation.
Description: as §1, §2, §4

In test [5] the test system is SAS (Human tongue carcinoma). The experiment in a line: MTT cytotoxicity, SAS. In kind it is cell-based. The settings on record: 24 hours incubation.
Description: as §1, §2, §4

Test [6] deals with HepG2 Cancer Cells (Human hepatocellular carcinoma). The experiment in a line: MTT cytotoxicity, HepG2. In kind it is cell-based. As to conditions: HepG2, 24 hours incubation.
Description: as §1, §2, §4

Test [7] concerns NCI-N87 (Human gastric carcinoma). In words: MTT cytotoxicity, NCI-N87. Format: cell-based. The settings on record: NCI-N87, 24 hours incubation.
Description: as §1, §2, §4

In test [8] the test system is HCT-15 (Human colorectal cancer). The experiment in a line: MTT cytotoxicity, HCT-15. In kind it is cell-based. As to conditions: HCT-15, 24 hours incubation.
Description: as §1, §2, §4

For the next test, the system named is E0771 breast cancer. Format: in vivo. The settings on record: E0771 tumor-bearing C57BL/6 mice. The protocol:
FIGS. 7A-7B are schematic diagrams of E0771 breast cancer experiments. FIG. 7A: The right flank of the mouse was administrated with SEQ ID NO:9. […] (2×10^5E0771 cells per mouse/50 μl RPMI-1640). Palpable tumors (75 mm^3) were injected (IT.) with single doses of SEQ ID NO:9 dissolved in PBS (1.0 mg peptide/50 μl PBS) once a day for 5 consecutive days, and the vehicle control was saline only (0.9% NaCl).
Female C57BL/6 mice (4- to 6-week old) as allogeneic model animals were purchased from BioLASCO Taiwan Co., Ltd. and maintained in a specific pathogen-free and controlled environment. During the experiments, female mice, weighing 18.0-24.0 g each, were kept in groups of 4 to 6 animals per cage under climate-controlled conditions, with 12 h light/dark cycles and an ambient temperature. The mice were housed in an enriched individually ventilated cage (IVC) system with free access to standard rodent chow and water ad libitum. The animals were anesthetized during the experimental procedures with 2.5% isoflurane gas. The animals were monitored daily. […]
Tumor size was measured 3 times a week using a caliper, and the volume of tumors was calculated using the following formula: Tumor size (mm^3)=0.5×(width^2×length). […] The survival rates of tumor-bearing mice were observed and recorded continuously until all animals died. […]

For the compound `CC(C)C[C@H](NC(=O)[C@H](Cc1ccc2ccccc2c1)NC(=O)[C@H](CCCCN)NC(=O)[C@H](CC(C)C)NC(=O)[C@H](Cc1c[nH]c2ccccc12)NC(=O)[C@H](CCCCN)NC(=O)[C@H](CCCNC(=N)N)NC(=O)[C@H](Cc1c[nH]c2ccccc12)NC(=O)[C@H](CCCNC(=N)N)NC(=O)[C@H](CCCNC(=N)N)NC(=O)[C@H](CCCCN)NC(=O)[C@H](CCCCN)NC(=O)[C@H](CCCCN)NC(=O)[C@@H](N)CCCCN)C(=O)N[C@@H](C)C(=O)N[C@@H](CCCCN)C(N)=O` [SEQ ID NO: 9, KKKK-RR-WRK-WLK-Nal-LA-K-NH2] (HELM PEPTIDE1{K.K.K.K.R.R.W.R.K.W.L.K.[O=C([C@H](Cc1ccc2ccccc2c1)N[*:1])[*:2]].L.A.K.[am]}$$$$V2.0; N-terminus assumed), the IC50 (as a rule, the point on the concentration scale where inhibition reaches its midpoint) in the test with HFW (Human fibroblast) worked out at 3.38 µM; in test [1], 6.32 µM; in test [2] it was 7.16 µM; with Panc02 it was 2.66 µM; in test [3], 3.02 µM; in test [4] it was 6.36 µM. For the same compound, the IC50 in [5] is 6.03 µM; in test [6] it was 9.81 µM; in test [7], 2.35 µM; in test [8] it was 2.42 µM. The “Survival (lifespan)” value in the test with E0771 breast cancer (IT. 1.0 mg once a day for 5 days, vs untreated controls) is “extended the lifespan”. Further, the “Tumor growth, treated tumor (right flank)” value in the test with E0771 breast cancer (IT. 1.0 mg peptide/50 μl PBS once a day for 5 consecutive days, vs saline control) is reported as “significantly inhibited tumor growth”.
